Laboratory results from patent US20050143366A1, “Compounds for diagnosis, treatment and prevention of bone injury and metabolic disorders” (priority 2003, published 2005).

Key:
[1] = Binding to microcrystalline hydroxyapatite from dilute aqueous solution; conditions: for % Adsorbed: 10^-5 M in 99:1 H2O:DMSO, 0.5% (w/v) slurried HA in Tris, mixed about 4 minutes, UV of supernatant; for Binding Index: Tetracycline positive control = 100
Source text: The ability of the compounds of the present invention to act as bone targeted pharmaceuticals is estimated initially by determination of the ability of the compounds to be bound to microcrystalline hydroxyapatite [Ca10(PO4)6.OH2] (HA) from a dilute aqueous solution. Solutions of test compounds are constructed in about 99: 1, v/v, H2O:dimethylsulfoxide (DMSO) at 10^−5M. These solutions are taken for determination of electronic photometric absorption spectra scanning from λ=500-190 nm. Absorption maxima (λmax) and extinction coefficients (ε) are determined using the Beer-Lambert law. […] These solutions and slurries are mixed for about 4 minutes, then centrifuged for about 3 minutes at 10,000×g. Supernatants are taken for UV absorption spectrometry at previously determined λmax. Concentrations of test compound are determined and the extent of binding is calculated. Tetracycline is included as a positive control compound.

[2] = tested on: bone loss associated with OVX; assay: Whole femoral density in ovariectomized rats, ED50 for preventing bone loss; assay type: in vivo, Sprague-Dawley female rats; conditions: dosing 3 times a week for about 6 weeks, dose preventing about 50% of the bone loss, by interpolation; for ED50: Rattus norvegicus, 1008 h, read-out: ED50 (nmol/kg) for preservation of Femoral Mass
Method: In vivo experiments—Bilaterally ovariectomized and sham operated Sprague-Dawley female rats (150-170 g) from Harlan Laboratories (Indianapolis, Ind.) are housed on about a 12 hour dark/light cycle at 22° C. with ad libitum access to tap water and food (Purina Laboratory Rodent Diet 5001: 0.95% calcium, 0.67% total phosphorous, and 0.40% non-phytate phosphorous). The rats are randomly assigned into groups of about 6 to 10 animals. Compound administration begins about 4 days after surgery. […] All compounds are dissolved in 5% DMSO in corn oil. After about 6 weeks of dosing, animals are euthanized by carbon dioxide asphyxiation. Blood is collected by cardiac puncture, and uteri and both left and right femurs are removed. Fresh weights of uteri are obtained. All animal procedures and care are approved by the internal animal care and use committee to ensure compliance with NIH guidelines. Determination of whole femoral density.—Following removal, femurs are rubbed clean of soft tissue using gauze, and femur fresh weights are measured. Femurs are then submerged in distilled water under a vacuum for about 1 hour to completely hydrate the femurs. Densities are determined by Archimedes' Principle using the following formula: density=[mass of hydrated femur/(mass of hydrated femur-mass of hydrated femur submerged in water)]*density of water at ambient temperature. The dose that is effective in preventing about 50% of the bone loss associated with OVX (ED50) is determined by interpolation.

[3] = tested on: bone strength of femora from OVX rats; assay: Blunt indentation force to failure test of the distal femoral metaphysis; assay type: in vivo; conditions: FIG. 1
Method: FIG. 1 is a bar graph showing the distal femur strength of animals including those treated with an exemplary compound of the present invention.
Bone density is not necessarily the equivalent to bone strength, so an additional test (blunt indentation force of the distal metaphysis) is performed as well. With reference to FIG. 1, as a measure of bone mechanical competence, a blunt indentation force to failure test is performed on femora from about 6-week-old OVX rats. Sham operated animals are simultaneously tested as a control.

Row | Compound | % Adsorbed [1] [%] | Binding Index [1] | ED50 [2] [nmol/kg] | ED50 (nmol/kg) for preservation of Femoral Mass [2] [nmol/kg] | effect on bone strength (blunt indentation force to failure) ([3]; at a normal dose) [%] | bone strength (blunt indentation force to failure, distal femur) [3]
1 | CC12CCC3c4ccc(O)cc4CCC3C1CCC2OC(=O)CCC(=O)Nc1ccc(O)c(C(N)=O)c1O (centres unmarked) [BTE2-A1] | 54 | 105 | 8 | – | – | –
2 | NC(=O)c1c(O)ccc(N)c1O [3-amino-2,6-dihydroxybenzamide, reference compound] | 25.4 | 49 | – | – | – | –
3 | Raloxifene [reference compound] | – | – | – | 210 | ~30 | –
4 | COc1ccc(NC(=O)CCCCC(=O)OC2CCC3C4CCc5cc(O)ccc5C4CCC23C)c(O)c1C(N)=O (centres unmarked) [BTE2-B2] | 99.1 | 192 | 9 | – | – | –
5 | C[C@]12CC[C@@H]3c4ccc(O)cc4CC[C@H]3[C@@H]1CC[C@@H]2O [17-β-estradiol, reference compound] | −4.0 | −8 | 10 | – | – | completely protect against osteopenia
6 | COc1ccc(NC(=O)CCC(=O)OC2CCC3C4CCc5cc(O)ccc5C4CCC23C)c(O)c1C(N)=O (centres unmarked) [BTE2-A2] | 91.7 | 178 | 19 | – | – | –
